This note sets out measurements from US7202239B2, “Cyclohexylphenyl carboxamides tocolytic oxytocin receptor antagonists” (Wyeth, priority 2001, dated 2007).

The target in this test is T1, human oxytocin receptor (Homo sapiens, UniProt P30559).
T1 sequence (P30559 1-389): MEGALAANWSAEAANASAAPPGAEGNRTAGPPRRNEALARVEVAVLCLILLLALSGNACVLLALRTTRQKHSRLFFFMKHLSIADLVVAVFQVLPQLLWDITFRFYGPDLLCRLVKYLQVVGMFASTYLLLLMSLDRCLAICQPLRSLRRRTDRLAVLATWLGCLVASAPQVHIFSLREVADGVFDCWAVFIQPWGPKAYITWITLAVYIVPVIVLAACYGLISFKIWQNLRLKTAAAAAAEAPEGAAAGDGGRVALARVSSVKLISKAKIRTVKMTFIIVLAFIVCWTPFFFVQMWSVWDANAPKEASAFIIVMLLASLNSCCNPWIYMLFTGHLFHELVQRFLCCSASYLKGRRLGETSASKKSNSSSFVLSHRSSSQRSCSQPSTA
The test can be described thus: Oxytocin binding in CHO cell membranes expressing human oxytocin receptors. Conditions: [3H]oxytocin; for inhibition at 0.1 µM / OT % inhibition at 100 nM: 100 nM; for inhibition at 0.1 µM: read-out: OT % inhibition at 100 nM; for IC50: value in parentheses, read-out: OT (IC50). The source says: Oxytocin Binding in Chinese Hamster Ovary Cell Membranes Expressing Human Oxytocin Receptors
Chinese Hamster Ovary (CHO) cells stably transfected with the human oxytocin receptor (cf. Tanizawa et al., U.S. Pat. No. 5,466,584 (1995) to Rohto Pharmaceutical Co. Ltd., Osaka, Japan) were obtained from M. Thibonnier, Case Western Reserve University School of Medicine, Cleveland, Ohio. A. Passaging and Amplification of Cells: CHO cells transfected with the human oxytocin receptors obtained from M. Thibonnier (pcDNA3.1 vector) are allowed to grow to confluency (approx. >90%) in T-150 flasks under sterile conditions, in a cell culture medium of F-12 Nutrient Mixture (HAM) with L-glutamine (Gibco Cat. # 11765-054) containing 15 mM HEPES (Gibco Cat. # 15630-080), 1% antibiotic/antimycotic (add 5 mL 100×, Gibco Cat. # 15240-062 per 500 mL F-12), 400 μg/mL of Geneticin (add 4 mL of 50 mg/mL per 500 mL F-12) and 10% Fetal Bovine Serum (Qualified, heat inactivated, Gibco Cat. # 16140-063). The medium is removed by aspiration and the cells are washed with 10 mL of Hank's Balanced Salt solution (Gibco Cat. # 14175-095). The salt solution is removed by aspiration and the cells trypsinized with 5 mL of trypsin-EDTA (0.05% trypsin, 0.53 mM EDTA-4Na, Gibco Cat. # 25300-070) for 1 min The trypsin is removed by aspiration and the cells dislodged by tapping. Cell Culture medium (e.g. 30 mL for 1:30 split) is immediately added and mixed well to inactivate trypsin. 1 mL of detached cells is added to new culture flasks containing fresh Cell Culture medium (e.g. into 25 mL per T-150 flask), and mixed gently. The cells are incubated at 37° C. in 5% CO2. The medium is changed at 3 to 4 days interval (or as appropriate). The cells grow to confluency (approx. >75%–95%) within 7–8 days. All steps are done under sterile conditions. B. Membrane Preparation: The cells are washed twice gently with Hank's Balanced Salt solution (eg, use 10 mL per T-150 flask). The excess solution is removed and the cells bathed for 15–30 min. in an enzyme-free Cell Dissociation Buffer (eg, use 8 mL Hank's Based, Gibco Cat. # 13150-016 per T-150 flask) until cells are loosened. The contents are transferred to centrifuge tubes (50 mL size) kept in ice bath. All subsequent steps are done at 4° C. The tubes are centrifuged at 300×g for 15 min (1380 rpm on SORVAL, Model RT6000D, using rotor for 50 mL tubes). The supernatant is discarded and the cells suspended in homogenizing buffer (10 mM Tris-HCl containing 0.25 M sucrose and 1 mM EDTA, pH 7.4) ensuring that the volume of the buffer is about ten times the volume of the cell pellet. The cells are pooled into a centrifuge tube (50 mL) and homogenized with a Polytron at setting 6 for 10 sec. The homogenate is transferred into a Potter-Elvjehm homogenizer and homogenized with 3 strokes. The homogenate is centrifuged at 1500×g for 10 min at 4° C. (3100 rpm using SORVAL, model RT6000D, using rotor for 50 mL tubes). The pellet is discarded. The supernatant is centrifuged at 100,000×g for 60 min. at 4° C. (Beckman L8-80M ultracentrifuge; spin at 37,500 rpm with rotor type 70 Ti for 50 mL tubes; 38,000 rpm with type 80Ti for 15 mL tubes; or 35,800 rpm with rotor type 45Ti). The supernantant is discarded and the pellet suspended in 3 to 4 mL of Tris buffer (50 mM TRIS-HCl, pH 7.4). The protein content is estimated by the Bradford or Lowry method. The volume of the membrane suspension is adjusted with the membrane buffer (50 mM Tris-HCl containing 0.1% BSA and 0.1 mM PMSF) to give 3.0 mg/mL (or as appropriate) of protein. The membranes are aliquoted and stored at −70° C. C. Radioligand Binding Assay: In wells of a 96-well format microtiter plate, is added 90, 110 or 130 μL (to make up a final volume of 200 μL) of assay buffer containing 50 mM of Tris-HCl (pH 7.4), […], 1 mg % aprotinin, 1 mg % leupeptin, 2 mg % 1,10-phenanthroline, 10 mg % trypsin inhibitor, and 0.1 mM PMSF. […]

Molecules are shown by their SMILES.

One may read the inhibition as the change of the read-out against control, counted positive when it falls. For orientation: IC50 means the concentration needed to halve the response being measured.

Take `COC(=O)c1ccc2c(c1)N(C(=O)c1ccc(C3CCCCC3)cc1)Cc1ccc(C(=O)N3CCN(C)CC3)n1C2.Cl` [Example 1, Methyl 10-(4-cyclohexylbenzoyl)-3-[(4-methyl-1-piperazinyl)carbonyl]-10,11-dihydro-5H-pyrrolo[2,1-c][1,4]benzodiazepine-8-carboxylate hydrochloride salt]: the inhibition at 0.1 µM turned out to be 14%.
Same read-out and setting: the value for `CN1CCN(C(=O)c2ccc3n2Cc2ccc(C(=O)O)cc2N(C(=O)c2ccc(C4CCCCC4)cc2)C3)CC1` [Example 3, 10-(4-Cyclohexyl-benzoyl)-3-[(4-methyl-1-piperazinyl)carbonyl]-10,11-dihydro-5H-pyrrolo[2,1-c][1,4]benzodiazepine-8-carboxylic acid] was -2%.
Turning to `CC(C)(C)c1ccc(C(=O)c2ccc3n2Cc2ccccc2N(C(=O)c2ccc(C4CCCCC4)cc2)C3)cc1` [Example 5, [4-(tert-Butyl)phenyl][10-(4-cyclohexyl-benzoyl)-10,11-dihydro-5H-pyrrolo[2,1-c][1,4]benzodiazepin-3-yl]methanone], the inhibition at 0.1 µM amounted to 46%.
As for `CC(=O)c1ccc2n1Cc1ccccc1N(C(=O)c1ccc(C3CCCCC3)cc1)C2` [Example 6, 1-[10-(4-Cyclohexyl-benzoyl)-10,11-dihydro-5H-pyrrolo[2,1-c][1,4]benzodiazepin-3-yl]-ethanone], the IC50 amounted to 105 nM.
For the compound `O=C(c1ccc(C2CCCCC2)cc1)N1Cc2ccc(C(=O)C(Cl)(Cl)Cl)n2Cc2ccccc21` [Example 7, 2,2,2-Trichloro-1-[10-(4-cyclohexyl-benzoyl)-10,11-dihydro-5H-pyrrolo[2,1-c][1,4]benzodiazepin-3-yl]-1-ethanone], the inhibition at 0.1 µM amounted to 12%.
For `NNC(=O)c1ccc2n1Cc1ccccc1N(C(=O)c1ccc(C3CCCCC3)cc1)C2` [Example 8, 10-(4-Cyclohexy-benzoyl)-10,11-dihydro-5H-pyrrolo[2,1-c][1,4]benzodiazepine-3-carboxylic acid hydrazide], the half-inhibitory concentration (IC50) stood at 127 nM.
The same measure, in the same setting: to `CC(=NNC(=O)c1ccc2n1Cc1ccccc1N(C(=O)c1ccc(C3CCCCC3)cc1)C2)N(C)C` [Example 9, N′-{[10-(4-Cyclohexyl-benzoyl)-10,11-dihydro-5H-pyrrolo[2,1-c][1,4]benzodiazepin-3-yl]carbonyl}-N,N-dimethylethanehydrazonamide] belongs 35.4 nM; to `CN(C)C=NNC(=O)c1ccc2n1Cc1ccccc1N(C(=O)c1ccc(C3CCCCC3)cc1)C2` [Example 10, N′-{[10-(4-Cyclohexyl-benzoyl)-10,11-dihydro-5H-pyrrolo[2,1-c][1.4]benzodiazepin-3-yl]carbonyl}-N,N-dimethylhydrazonoformamide], 75.7 nM; to `CC(=O)NNC(=O)c1ccc2n1Cc1ccccc1N(C(=O)c1ccc(C3CCCCC3)cc1)C2` [Example 11, N′-Acetyl-10-(4-cyclohexyl-benzoyl)-10,11-dihydro-5H-pyrrolo[2,1-c][1,4]benzodiazepine-3-carbonyl-hydrazide], 52.1 nM.
Take `Cc1ccccc1C(=O)NNC(=O)c1ccc2n1Cc1ccccc1N(C(=O)c1ccc(C3CCCCC3)cc1)C2` [Example 12, 10-(4-Cyclohexyl-benzoyl)-N′-(2-methylbenzoyl)-10,11-dihydro-5H-pyrrolo[2,1-c][1,4]benzodiazepine-3-carbonyl-hydrazide]: the “OT % inhibition at 100 nM” value was 47%.
For `O=C(NNC(=O)C1CC1)c1ccc2n1Cc1ccccc1N(C(=O)c1ccc(C3CCCCC3)cc1)C2` [Example 13, 10-(4-Cyclohexyl-benzoyl)-N′-(cyclopropylcarbonyl)-10,11-dihydro-5H-pyrrolo[2,1-c][1,4]benzodiazepine-3-carbonyl-hydrazide], the “OT % inhibition at 100 nM” value stood at 73%.
As for `Cc1cccc(C(=O)NNC(=O)c2ccc3n2Cc2ccccc2N(C(=O)c2ccc(C4CCCCC4)cc2)C3)c1` [Example 14, 10-(4-Cyclohexyl-benzoyl)-N′-(3-methyl-benzoyl)-10,11-dihydro-5H-pyrrolo[2,1-c][1,4]benzodiazepine-3-carbonyl-hydrazide], the “OT % inhibition at 100 nM” value is on record as 53%.
With `O=C(NNC(=O)c1ccc2n1Cc1ccccc1N(C(=O)c1ccc(C3CCCCC3)cc1)C2)Nc1ccccc1` [Example 15, 2-{[10-(4-Cyclohexyl-benzoyl)-10,11-dihydro-5H-pyrrolo[2,1-c][1,4]benzodiazepin-3-yl]carbonyl}-N-phenyl-1-hydrazinecarboxamide], the inhibition at 0.1 µM is 16%.
For `NC(=O)c1ccc2n1Cc1ccccc1N(C(=O)c1ccc(C3CCCCC3)cc1)C2` [Example 16, 10-(4-Cyclohexyl-benzoyl)-10,11-dihydro-5H-pyrrolo[2,1-c][1,4]benzodiazepin-3-carboxamide], the IC50 was determined as 133 nM.
In the case of `CN(C)/C=N/C(=O)c1ccc2n1Cc1ccccc1N(C(=O)c1ccc(C3CCCCC3)cc1)C2` [Example 17], the IC50 was 51.4 nM.
In the case of `C/C(=N\C(=O)c1ccc2n1Cc1ccccc1N(C(=O)c1ccc(C3CCCCC3)cc1)C2)N(C)C` [Example 18], the half-maximal inhibitory concentration (IC50) is 4.36 nM.
For the compound `CN(C)NC(=O)c1ccc2n1Cc1ccccc1N(C(=O)c1ccc(C3CCCCC3)cc1)C2` [Example 19, 10-(4-Cyclohexyl-benzoyl)-N′-N′-dimethyl-10,11-dihydro-5H-pyrrolo[2,1-c][1,4]benzodiazepine-3-carbohydrazide], the IC50 worked out at 130 nM.
For `CN(C)/C=C/C(=O)c1ccc2n1Cc1ccccc1N(C(=O)c1ccc(C3CCCCC3)cc1)C2` [Example 20, (E)-1-[10-(4-Cyclohexyl-benzoyl)-10,11-dihydro-5H-pyrrolo[2,1-c][1,4]benzodiazepin-3-yl]-3-(dimethylamino)-2-propen-1-one], the inhibition at 0.1 µM came out at 43%.
Same read-out and setting: to `CN(N)C(=O)c1ccc2n1Cc1ccccc1N(C(=O)c1ccc(C3CCCCC3)cc1)C2` [Example 21, 10-(4-Cyclohexyl-benzoyl)-N-methyl-10,11-dihydro-5H-pyrrolo[2,1-c][1,4]benzodiazepine-3-carboxylic acid hydrazide] belongs 68%.
In the case of `O=C(O)c1ccc2n1Cc1ccccc1N(C(=O)c1ccc(C3CCCCC3)cc1)C2` [Example 22, 10-(4-Cyclohexyl-benzoyl)-10,11-dihydro-5H-pyrrolo[2,1 c][1,4]benzodiazepine-3-carboxylic acid], the “OT % inhibition at 100 nM” value is recorded as 34%.
For the compound `O=C(c1ccc2n1Cc1ccccc1N(C(=O)c1ccc(C3CCCCC3)cc1)C2)N1CCN(c2ncccn2)CC1` [Example 23], the IC50 came to 41.8 nM.
